According to US20180179524A1, “COMPOSITIONS AND METHODS FOR INHIBITING CELL PROLIFERATION” (President and Fellows of Harvard College, priority 2015, published 2018):

Each compound was assayed on Tsc2−/− MEFs (assay: Proliferation of Tsc2-/- MEFs relative to Tsc2+/+ MEFs treated with compounds (FIG. 9)). Details: 2 μM; FIG. 9 panel C.
Format: cell-based
Experimental: FIG. 9 is a series of panels, panels A-E showing TSC2 loss confers sensitivity to CCNT1, RNGTT, or CDK11 loss of function. Panel A is a schematic of the methods disclosed herein. […] Panel B represents data corresponding to the CDK9/CDK11 inhibitor JWD07 (5 μM). Panel C represents data corresponding to the CDK2/CDK9/CDK11 inhibitor AT7915 (2 μM). Panel D represents data corresponding to the RNGTT/IMPDH inhibitor Mizoribine (2.5 μM). Panel E represents data corresponding to the mTORC1 inhibitor Rapamycin (20 nM).

**Q.** How did the “proliferation of Tsc2−/− MEFs relative to Tsc2+/+ MEFs” value turn out when O=C(NC1CCNCC1)c1n[nH]cc1NC(=O)c1c(Cl)cccc1Cl [AT7915] was run?
**A.** selectively reduce proliferation

Same assay, conditions: 2.5 μM; FIG. 9 panel D

**Q.** For NC(=O)c1ncn([C@@H]2O[C@H](CO)[C@@H](O)[C@H]2O)c1O [Mizoribine], which “proliferation of Tsc2−/− MEFs relative to Tsc2+/+ MEFs” value is on record?
**A.** selectively reduce proliferation

Same assay, conditions: JWD07 5 μM, AT7915 2 μM, Mizoribine 2.5 μM

**Q.** With O=C(NC1CCNCC1)c1n[nH]cc1NC(=O)c1c(Cl)cccc1Cl [AT7915] as the compound, how does the “cytotoxic effect on Tsc2−/− cells” value read?
**A.** exert a cytotoxic effect

**Q.** Which “cytotoxic effect on Tsc2−/− cells” value does the source give for NC(=O)c1ncn([C@@H]2O[C@H](CO)[C@@H](O)[C@H]2O)c1O [Mizoribine] here?
**A.** exert a cytotoxic effect

Same assay, conditions: JWD07 5 μM, AT7915 2 μM, Mizoribine 2.5 μM vs Rapamycin 20 nM

**Q.** O=C(NC1CCNCC1)c1n[nH]cc1NC(=O)c1c(Cl)cccc1Cl [AT7915] was tested. Which “selective effects on cell viability in Tsc2−/− cells compared with rapamycin” value did it give?
**A.** superior to rapamycin

**Q.** With NC(=O)c1ncn([C@@H]2O[C@H](CO)[C@@H](O)[C@H]2O)c1O [Mizoribine] as the compound, how does the “selective effects on cell viability in Tsc2−/− cells compared with rapamycin” value read?
**A.** superior to rapamycin

Each compound was assayed on luciferase-based reporter constructs in S2R+ cells (assay: Luciferase-based mutation reporter assay (sgRNA mutation efficiency)). Details: sgRNAs with no mismatches targeting luciferase-based reporter in S2R+ cells; mutation rate = 1/Firefly luciferase normalized to Renilla.
Format: cell-based, Drosophila
Experimental: The luciferase reporter vector was constructed by PCR amplifying the metallothionein promoter from pMK33 and luciferase gene from pGL3 (Table 1) and combining these with annealed oligos containing a gRNA target site (Table 1 and Table 2) and a custom made cloning vector using Golden Gate assembly.
Luciferase assays were performed by transfecting S2R+ cells with the relevant pl018 plasmid, luciferase reporter and pRL-TK (Promega) (to allow normalization of transfection efficiencies between samples) in 96 well plates using Effectene Transfection Reagent (Qiagen) according to the manufacturer's recommendations. Twenty-four hours after transfection, CuSO4 was added to the cell media at a final concentration of 140 μM and cells were incubated for a further 16 hours.
Firefly and Renilla luciferase readings were taken using the Dual-Glo Luciferase Assay System (Promega) according to manufacturer's instructions and a SpectraMax Paradigm Multi-Mode Microplate Detection Platform (Molecular Devices).
Because the rate of mutations varies widely between different sgRNAs (25-27), whether efficiency could be predicted based on the sgRNA sequence was tested. 75 additional sgRNAs were generated, each targeting luciferase-based reporter constructs with no mismatches and tested mutation efficiency for each. Using this panel of sgRNAs and associated efficiencies, the presence or absence of a correlation between GC content and mutation rate was examined. […] Next, whether a more general sequence-based approach was tested for its ability to improve efficiency prediction. The nucleotide content of all 75 sgRNAs was examined, considering each position separately and generated a probability matrix linking nucleotide content with mutation rate (FIG. 1, panel B). This was then used to generate predicted efficiency scores based on sgRNA sequence. […] Note that sgRNAs targeting close to the 3′ end of genes or with apparent viability effects were not included in this analysis. Finally, predicted scores were generated for all sgRNA target sites in the Drosophila genome and annotated.

**Q.** With “GCCCAGGGGGAATCGGCCGC: sgRNA targeting a luciferase-based reporter construct, no mismatches (chemistry not given here)” as the compound, how does the Mean efficiency read?
**A.** 0.4072

**Q.** Which Mean efficiency does the source give for “GCCCGAAAGACACGTTTTTT: sgRNA targeting a luciferase-based reporter construct, no mismatches (chemistry not given here)” here?
**A.** 0.197

**Q.** “GCGAGTTATCTATCCCCAGG: sgRNA targeting a luciferase-based reporter construct, no mismatches (chemistry not given here)” was tested. Which Mean efficiency did it give?
**A.** 0.4749

**Q.** “GCTCTGGACCATACGGGGAT: sgRNA targeting a luciferase-based reporter construct, no mismatches (chemistry not given here)” was tested. Which Mean efficiency did it give?
**A.** 0.1746

**Q.** “GGAATAACCACGTCCCGCGT: sgRNA targeting a luciferase-based reporter construct, no mismatches (chemistry not given here)” was tested. Which Mean efficiency did it give?
**A.** 0.2894

**Q.** Which Mean efficiency does the source give for “GGAGCGAGTTATCTATCCCC: sgRNA targeting a luciferase-based reporter construct, no mismatches (chemistry not given here)” here?
**A.** 0.06181

**Q.** With “GGATGTTCCGGCACAACGCC: sgRNA targeting a luciferase-based reporter construct, no mismatches (chemistry not given here)” as the compound, how does the Mean efficiency read?
**A.** 0.2753

**Q.** Which Mean efficiency does the source give for “GGCACCGGGTAGCCTTGCGC: sgRNA targeting a luciferase-based reporter construct, no mismatches (chemistry not given here)” here?
**A.** 0.3497

**Q.** With “GGGCTCCAGGCTGCGCGCAA: sgRNA targeting a luciferase-based reporter construct, no mismatches (chemistry not given here)” as the compound, how does the Mean efficiency read?
**A.** 0.2308

**Q.** Which Mean efficiency does the source give for “GGTTACCAACTCAGGACCCG: sgRNA targeting a luciferase-based reporter construct, no mismatches (chemistry not given here)” here?
**A.** 0.4858

**Q.** How did the Mean efficiency turn out when “GGTTCACTATTGGGGCGATC: sgRNA targeting a luciferase-based reporter construct, no mismatches (chemistry not given here)” was run?
**A.** 0.1771

**Q.** How did the Mean efficiency turn out when “GTCGGAACCTGAGTCGTTTT: sgRNA targeting a luciferase-based reporter construct, no mismatches (chemistry not given here)” was run?
**A.** 0.5891

**Q.** Which Mean efficiency does the source give for “GTGCTGCGCCAACCCAAATA: sgRNA targeting a luciferase-based reporter construct, no mismatches (chemistry not given here)” here?
**A.** 0.0849

**Q.** Which Mean efficiency does the source give for “GTGGAATCTACTGTGGAATC: sgRNA targeting a luciferase-based reporter construct, no mismatches (chemistry not given here)” here?
**A.** 0.2969

**Q.** Which Mean efficiency does the source give for “GTGTCCAGGCTCGTCATGCC: sgRNA targeting a luciferase-based reporter construct, no mismatches (chemistry not given here)” here?
**A.** 0.8603

**Q.** With “TAAGACATACGTACGCCCAG: sgRNA targeting a luciferase-based reporter construct, no mismatches (chemistry not given here)” as the compound, how does the Mean efficiency read?
**A.** 0.1814

**Q.** Which Mean efficiency does the source give for “TCCTATTACTGCGTGCAGCC: sgRNA targeting a luciferase-based reporter construct, no mismatches (chemistry not given here)” here?
**A.** 1.342

**Q.** With “TCGAGGATGGGACGCTTATC: sgRNA targeting a luciferase-based reporter construct, no mismatches (chemistry not given here)” as the compound, how does the Mean efficiency read?
**A.** 0.5053

**Q.** For “TCGATGACGCCCGGGTTAAC: sgRNA targeting a luciferase-based reporter construct, no mismatches (chemistry not given here)”, which Mean efficiency is on record?
**A.** 0.26

**Q.** “TCGCGGGCTTGCATGACGCG: sgRNA targeting a luciferase-based reporter construct, no mismatches (chemistry not given here)” was tested. Which Mean efficiency did it give?
**A.** 0.3295

**Q.** “TCGTACCGCACCGGTATTTT: sgRNA targeting a luciferase-based reporter construct, no mismatches (chemistry not given here)” was tested. Which Mean efficiency did it give?
**A.** 0.1565

**Q.** Which Mean efficiency does the source give for “TGACGCCTCAGGGTGCCGTC: sgRNA targeting a luciferase-based reporter construct, no mismatches (chemistry not given here)” here?
**A.** 0.6594

**Q.** Which Mean efficiency does the source give for “TGCGCTTACCGACGATTGGG: sgRNA targeting a luciferase-based reporter construct, no mismatches (chemistry not given here)” here?
**A.** 0.1109

**Q.** How did the Mean efficiency turn out when “TGCGGTCGCGTGAGAAATAT: sgRNA targeting a luciferase-based reporter construct, no mismatches (chemistry not given here)” was run?
**A.** 0.02876

**Q.** Which Mean efficiency does the source give for “TGTTCCCTACACGGCGCCAG: sgRNA targeting a luciferase-based reporter construct, no mismatches (chemistry not given here)” here?
**A.** 0.2531

**Q.** With “TTCTCCGCTGTTATCCTATA: sgRNA targeting a luciferase-based reporter construct, no mismatches (chemistry not given here)” as the compound, how does the Mean efficiency read?
**A.** 0.08182

**Q.** Which Mean efficiency does the source give for “TTCTGAGTACATGTGATACC: sgRNA targeting a luciferase-based reporter construct, no mismatches (chemistry not given here)” here?
**A.** 0.2974

**Q.** How did the Mean efficiency turn out when “TTGACATCAGCGCGCGAGGC: sgRNA targeting a luciferase-based reporter construct, no mismatches (chemistry not given here)” was run?
**A.** 0.3893

**Q.** “TTGGCCGCGACCTGTTTATC: sgRNA targeting a luciferase-based reporter construct, no mismatches (chemistry not given here)” was tested. Which Mean efficiency did it give?
**A.** 0.9282

**Q.** For “TTGTTCGAAGATCTGCGCGA: sgRNA targeting a luciferase-based reporter construct, no mismatches (chemistry not given here)”, which Mean efficiency is on record?
**A.** 0.2212

**Q.** “TTGTTTGCTGGTACAAACGC: sgRNA targeting a luciferase-based reporter construct, no mismatches (chemistry not given here)” was tested. Which Mean efficiency did it give?
**A.** 0.2993

**Q.** Which Mean efficiency does the source give for “TTTTTTTGGGATCATATACG: sgRNA targeting a luciferase-based reporter construct, no mismatches (chemistry not given here)” here?
**A.** 0.1278
